Results published in patent US12589090B2, “Compounds and methods for the treatment of degenerative disorders” (Aquilus Pharmaceuticals, Inc., priority 2019, dated 2026).
“Also recorded” adds a separate entry of the source.

What was measured:
[1] = In-vivo oral rat pharmacokinetics (Example 15); settings: male Sprague-Dawley rats, dose level 10 mg/kg, 0.5% MC, plasma, mean
Procedure: Understanding the pharmacokinetics in species typically employed in preclinical animal testing is an essential component of drug discovery. […] Procedure: Six (6) male Sprague-Dawley rats were used. Fasting was conducted at least 16 hours prior to dose administration. Food was returned at approximately 4 hours post dose. The animals were placed into 2 groups of 3 animals per group. The oral (PO) formulation for Groups 1 & 2 were prepared on the day of dosing at a target concentration of 0.5 mg/mL in 0.5% Methylcellulose (400 cps) to produce a white, homogeneous suspension. Dosing was performed as outlined in Table 1:
Whole blood samples (0.250 mL; K2EDTA anticoagulant) were collected from each animal through a jugular vein catheter. Whole blood samples were collected from all animals pre-dose, and at 0.25, 0.5, 1, 2, 4, 8, 16, and 24 hours after dose administration. All blood samples were immediately placed on ice until processing. Whole blood samples were centrifuged at 2200×g for 10 minutes in a refrigerated centrifuge (5±3° C.) to isolate plasma. The plasma samples were transferred to individual polypropylene vials and immediately placed on dry ice before storage at nominally −20±5° C. The plasma samples sometime later were then thawed and extracted and analyzed by high pressure liquid chromatography (HPLC) coupled to Mass Spectrometry (MS) (Table 2). Pharmacokinetic parameters (Table 3) were estimated using WinNonlin® pharmacokinetic software (Version No. 5.2.1) using a non-compartmental approach consistent with the PO route of administration.

SNL rats = assay: Spinal nerve ligation (SNL) rat model, mechanical allodynia by von Frey paw withdrawal threshold (Example 17); assay type: in vivo, Sprague Dawley rats; settings: 160 mg/Kg PO once per day for 5 days, 60 min after dosing, vs. vehicle control, p<0.05
Procedure: A total of 90 male Sprague Dawley rats (200-225 g) from Envigo (Indianapolis, IN) were used in the study. The 90 rats were assembled into four groups that would be orally dosed (PO) with vehicle, Gabapentin and Compound 118 as follows: • Group 1=Sham+Vehicle, n=20 rats • Group 2=SNL+Vehicle, n=40 rats • Group 3=SNL+Compound 118 (160 mg/Kg), n=20 rats • Group 4=SNL+Gabapentin (100 mg/Kg), n=10 rats
Under general anesthesia with continuous inhalation of isoflurane, surgery was performed with aseptic procedures. The skin at the area of the lower lumber and sacral level of the rat was shaved and disinfected with betadine and alcohol. A left longitudinal incision at the level next to the vertebral column was made and the left paraspinal muscles were separated. The transverse process of L6 was removed and nearby connective tissue cleaned to expose L5 and L6 spinal nerves. After the nerves were isolated and clearly visualized, 4-0 silk threads were used to ligate the left L5. The muscles were sutured with 4-0 silk threads and the wound closed by staples. […] Each rat was monitored until awake and moving freely around the recovery chamber. […]
The mechanical allodynia of the rodents were measured by applying von Frey (VF) filaments (Stoelting, Wood Dale, IL) of ascending bending force to the plantar surface of the hind paws, ipsilateral and contralateral to the surgical manipulation. […]

[2] = system: TDP-43 overexpression in Drosophila motor neurons; assay: TDP-43 Drosophila model of ALS, larval turning read-out (Example 23); assay type: in vivo; settings: 1 microMolar, TDP-43 (wild-type and G298S) overexpression, vs. DMSO vehicle
Procedure: Procedure: UAS TDP-43 male Drosophila flies were crossed with D42-Gal4 female virgins on fly food containing either DMSO or 1% Compound 118 in dimethyl sulfoxide (DMSO). For DMSO controls, the same volume of DMSO as the corresponding Compound 118 concentration was added. Bromophenol blue was added to a final concentration of around 0.02% to ensure homogeneity. Crosses were made on drug food with three female virgins and two males in each vial and were maintained at 25° C. unless noted. The parents were discarded after 5-7 days and then the vials were screened for adult progeny with straight wings from Day 14 to Day 25. All adults were screened for TDP-43 expression by visualizing the YFP tag. Total number of pupae was counted on Day 25. Percent survival was calculated using the formula (total number of straight-winged adults/total number of pupae)×100. All experiments were performed in triplicate. Read-outs include larval turning assay and pupil lethality screen.
TDP^WT=Wild-type TDP-43, TDP^G298S=Diseases associated G298S mutant expressed in motor neurons. […], ***p<0.001 as compared to DMSO as vehicle.

[3] = system: SOD-1 overexpression in Drosophila motor neurons; assay: SOD-1 Drosophila model of ALS, larval turning read-out (Example 24); assay type: in vivo; settings: 1 microMolar, SOD-1 (wild-type and G85R) overexpression, vs. DMSO vehicle
Procedure: Procedure: Following the method of Zarnescu and coworkers (Human Molecular Genetics, 24(6), 1741-1754, 2015). UAS SOD-1 male Drosophila flies were crossed with D42-Gal4 female virgins on fly food containing either DMSO or 1% Compound 118 in dimethyl sulfoxide (DMSO). For DMSO controls, the same volume of DMSO as the corresponding Compound 118 concentration was added. Bromophenol blue was added to a final concentration of around 0.02% to ensure homogeneity. Crosses were made on drug food with three female virgins and two males in each vial and were maintained at 25° C. unless noted. The parents were discarded after 5-7 days and then the vials were screened for adult progeny with straight wings from Day 14 to Day 25. All adults were screened for SOD-1 expression. Read-outs involved the larval turning assay.
SOD-1^wt=Wild-type, SOD1^G85R=Diseases associated G85R mutant expressed in motor neurons. […], ***p<0.001 as compared to DMSO vehicle.

[4] = Solubility testing (Example 27); assay type: physicochemical

## [2H]C([2H])([2H])c1ccc(C#Cc2ccc(S(=O)(=O)N[C@H](Cc3c[nH]c4ccccc34)C(=O)O)s2)cc1 [Compound 118, (R)-3-(1H-Indol-3-yl)-2-[5-(4-trideuteromethyl-phenylethynyl)-thiophene-2-sulfonylamino]-propionic acid-(D3, 98%)]
[1]
  AUC(0-inf): 7730 ng·h/mL
  AUC(0-t): 7680 ng·h/mL
  Cmax: 2740 ng/mL
  half-life: 88.2 min
SNL rats
  mechanical allodynia (ipsilateral paw withdrawal threshold, von Frey): reduce mechanical allodynia in a statistical manner; also recorded: statistically significant decrease in mechanical allodynia
[2]
  locomotive defects via larval turning times: able to mitigate locomotive defects
[3]
  locomotive defects via larval turning times: able to mitigate locomotive defects
[4]
  solubility in DMSO, acetone and methanol: soluble
[4]; as the free acid
  solubility in water: poorly soluble
